The results in this text go back to PubChem BioAssay (NCI).

Test systems include COLO 205 colon; HCC-2998 colon; HL-60(TB) leukemia; IGROV1 ovarian; KM12 colon; MDA-MB-231 breast; NCI-H460 lung; RPMI-8226 leukemia; SN12C renal; UO-31 renal.
Common to all, as to test: growth of human tumour cells (NCI), 48 h

Molecules are shown by their SMILES. “And” between values parts separate entries of the source, which are not always exact repeats. Equal values may be shown once.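 All cell lines were grown in 96-well plates and treated with compound for 48 hours. At the GI50, growth is halved. TGI denotes the concentration required for complete inhibition of growth.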 Bounds are passed on as bounds.

Turning to `NCCCNc1nc2ccccc2c2c(=O)c3cc(F)cc(Cl)c3sc12`, the GI50 with COLO 205 colon is 1.92 µM; with HCC-2998 colon, 1.79 µM; in the assay on HL-60(TB) leukemia it was 2.45 µM; in the assay with IGROV1 ovarian, 1.58 µM; in the assay with KM12 colon, 1.72 µM; in the assay on MDA-MB-231 breast, 1.58 µM. Further, the GI50 in the assay with NCI-H460 lung is 1.64 µM; in the assay on RPMI-8226 leukemia, 2.13 µM; in the assay with SN12C renal, 1.71 µM; with UO-31 renal it was 1.47 µM. The TGI in the assay with COLO 205 colon was 4.41 µM; with HCC-2998 colon it was 3.68 µM; in the assay with HL-60(TB) leukemia, 6.58 µM; in the assay with IGROV1 ovarian, 3.12 µM; in the assay on KM12 colon, 3.17 µM; with MDA-MB-231 breast it was 3.07 µM. Moreover, the TGI amounted to 3.11 µM in the assay with NCI-H460 lung, 5.03 µM with RPMI-8226 leukemia, 3.24 µM in the assay on SN12C renal and 2.84 µM with UO-31 renal.
As to `NC(Cc1c[nH]c2cccc(F)c12)C(=O)O` (centres undefined), the GI50 is 43.6 µM and 302 µM with COLO 205 colon; 73.2 µM and 694 µM with HCC-2998 colon; 43.8 µM with IGROV1 ovarian; 25.2 µM and 230 µM in the assay with KM12 colon; 545 µM with MDA-MB-231 breast; 34.9 µM and 235 µM in the assay with NCI-H460 lung. The GI50 is 959 µM with SN12C renal and 842 µM in the assay on UO-31 renal. The TGI in the assay on COLO 205 colon was 944 µM; with HCC-2998 colon it was 2400 µM; in the assay with HL-60(TB) leukemia, greater than 4500 µM; with KM12 colon, greater than 4500 µM; in the assay with MDA-MB-231 breast it was 2300 µM; in the assay on NCI-H460 lung, 2460 µM. Also, the TGI with RPMI-8226 leukemia, with SN12C renal and with UO-31 renal was greater than 4500 µM throughout.
With `COc1cccc(-c2nn(-c3ccccc3)cc2-c2ccnc(NCCCNS(=O)(=O)c3ccc(C(F)(F)F)cc3)c2)c1`, the GI50 in the assay on COLO 205 colon is 2.5 µM; with HCC-2998 colon it was 5.22 µM; in the assay with HL-60(TB) leukemia, 3.97 µM; in the assay with IGROV1 ovarian it was 10.7 µM; in the assay with KM12 colon, 4.02 µM; in the assay with MDA-MB-231 breast it was 4.98 µM. Moreover, the GI50 in the assay on NCI-H460 lung was 6 µM; with RPMI-8226 leukemia, 3.63 µM; with SN12C renal, 8.4 µM; with UO-31 renal, 2.9 µM. Also, the TGI was 7.77 µM with COLO 205 colon; greater than 100 µM in the assay on HCC-2998 colon; greater than 100 µM with HL-60(TB) leukemia; greater than 100 µM in the assay on IGROV1 ovarian; greater than 100 µM with KM12 colon; greater than 100 µM with MDA-MB-231 breast. The TGI in the assay with NCI-H460 lung, in the assay with RPMI-8226 leukemia, with SN12C renal and in the assay on UO-31 renal was greater than 100 µM each time.
As to `O=C(COc1cccc(/C=C2\Oc3ccc4ccccc4c3C2=O)c1)c1ccc([N+](=O)[O-])cc1`, the GI50 was 21.8 µM in the assay on COLO 205 colon; 15.7 µM in the assay on HCC-2998 colon; 62.7 µM in the assay with HL-60(TB) leukemia; 6.76 µM in the assay on IGROV1 ovarian; 11.9 µM in the assay with KM12 colon; 18.8 µM in the assay on MDA-MB-231 breast. Further, the GI50 in the assay on NCI-H460 lung is 37 µM; in the assay on RPMI-8226 leukemia, 1.12 µM; in the assay on SN12C renal, 13.9 µM; in the assay on UO-31 renal, 36.7 µM. The TGI with COLO 205 colon was greater than 100 µM; in the assay with HCC-2998 colon, greater than 100 µM; in the assay on HL-60(TB) leukemia it was greater than 100 µM; with IGROV1 ovarian, 40.7 µM; with KM12 colon, 26.2 µM; in the assay on MDA-MB-231 breast, 68.8 µM. Moreover, the TGI was greater than 100 µM in the assay on NCI-H460 lung, 13.3 µM in the assay on RPMI-8226 leukemia, 32.5 µM in the assay with SN12C renal and greater than 100 µM in the assay with UO-31 renal.
Turning to `COc1ccc(NC(=O)c2cccc(C3CCc4c(cc(OC)c(OC)c4OC)O3)c2)cc1` (centres undefined), the GI50 was 2.39 µM with COLO 205 colon; 6.01 µM in the assay with HCC-2998 colon; 1.25 µM with HL-60(TB) leukemia; 4.96 µM in the assay on IGROV1 ovarian; 3.49 µM with KM12 colon; 4.13 µM with MDA-MB-231 breast. Further, the GI50 in the assay on NCI-H460 lung is 3.33 µM; with RPMI-8226 leukemia, 1.36 µM; with SN12C renal it was 3.7 µM; in the assay with UO-31 renal, 2.36 µM. In addition, the TGI was 6.67 µM in the assay with COLO 205 colon; greater than 100 µM in the assay with HCC-2998 colon; greater than 100 µM with HL-60(TB) leukemia; greater than 100 µM in the assay with IGROV1 ovarian; greater than 100 µM in the assay on KM12 colon; greater than 100 µM with MDA-MB-231 breast. The TGI in the assay with NCI-H460 lung was greater than 100 µM; in the assay with RPMI-8226 leukemia, 7.93 µM; in the assay with SN12C renal, greater than 100 µM; with UO-31 renal, greater than 100 µM.
As to `CC1(C)CN(CCNc2nccc(-c3c(-c4cccc(O)c4)nc4sccn34)n2)S(=O)(=O)N1`, the GI50 with COLO 205 colon was 0.448 µM; with HCC-2998 colon, 19.5 µM; in the assay on HL-60(TB) leukemia, 10.2 µM; in the assay with IGROV1 ovarian, 6.58 µM; in the assay on KM12 colon, 11.9 µM; in the assay on MDA-MB-231 breast, 7.94 µM. The GI50 is 7.07 µM with NCI-H460 lung, 16.6 µM in the assay with RPMI-8226 leukemia, 9.86 µM with SN12C renal and 13.3 µM in the assay with UO-31 renal. For the same compound, the TGI is 7.25 µM in the assay on COLO 205 colon; greater than 33.2 µM in the assay with HCC-2998 colon; 30.2 µM in the assay on HL-60(TB) leukemia; greater than 33.2 µM in the assay with IGROV1 ovarian; greater than 33.2 µM in the assay with KM12 colon; greater than 33.2 µM with MDA-MB-231 breast. Further, the TGI with NCI-H460 lung, in the assay on RPMI-8226 leukemia, with SN12C renal and with UO-31 renal was greater than 33.2 µM each time.
As to `C/C(=N\NC(=S)N1CCN(c2ccccn2)CC1)c1cccc2cccnc12`, the TGI is greater than 46.1 µM in the assay on COLO 205 colon; greater than 58.9 µM in the assay with HCC-2998 colon; 12.3 µM in the assay on HL-60(TB) leukemia; greater than 100 µM with IGROV1 ovarian; greater than 100 µM in the assay on KM12 colon; greater than 64.6 µM in the assay with MDA-MB-231 breast. Moreover, the TGI in the assay with NCI-H460 lung was greater than 100 µM; with RPMI-8226 leukemia it was 20.2 µM; in the assay with SN12C renal, 34.8 µM; in the assay on UO-31 renal, greater than 56.5 µM.
Regarding `COc1ccc2c(c1)C(=O)c1c-2n(CCCCl)c(=O)c2cc(N)ccc12`, the GI50 in the assay on COLO 205 colon was greater than 100 µM; in the assay on HCC-2998 colon, greater than 100 µM; with HL-60(TB) leukemia, greater than 41.3 µM; in the assay with IGROV1 ovarian, greater than 100 µM; in the assay on KM12 colon, 29.3 µM; in the assay with MDA-MB-231 breast, 25.6 µM. For the same compound, the GI50 in the assay on NCI-H460 lung, in the assay with RPMI-8226 leukemia and in the assay with UO-31 renal was greater than 100 µM in each case. In addition, the TGI with COLO 205 colon was greater than 100 µM; in the assay on HCC-2998 colon it was greater than 100 µM; with HL-60(TB) leukemia, greater than 59.1 µM; with IGROV1 ovarian, greater than 100 µM; in the assay on KM12 colon, greater than 100 µM; in the assay on MDA-MB-231 breast, greater than 95.7 µM. For the same compound, the TGI in the assay with NCI-H460 lung was greater than 100 µM; with RPMI-8226 leukemia it was greater than 100 µM; in the assay with SN12C renal, 97.4 µM; in the assay on UO-31 renal it was greater than 100 µM.
On to `O=c1[nH]c2ccccc2n1C1CCN(CCOc2ccccc2)CC1`, for which the GI50 in the assay with COLO 205 colon is 14.5 µM; with HCC-2998 colon, 26.9 µM; in the assay on HL-60(TB) leukemia, 12.9 µM; in the assay with IGROV1 ovarian, 91.7 µM; in the assay on KM12 colon, 40.4 µM; with MDA-MB-231 breast it was 27 µM. In addition, the GI50 is 18.7 µM in the assay on NCI-H460 lung, 9.28 µM in the assay with RPMI-8226 leukemia, 34.3 µM with SN12C renal and 34.1 µM with UO-31 renal. Further, the TGI with COLO 205 colon was 45.8 µM; with HCC-2998 colon it was greater than 100 µM; with HL-60(TB) leukemia, greater than 100 µM; in the assay with IGROV1 ovarian, greater than 100 µM; in the assay with KM12 colon, greater than 100 µM; with MDA-MB-231 breast, greater than 100 µM. Further, the TGI in the assay on NCI-H460 lung, in the assay with RPMI-8226 leukemia, with SN12C renal and in the assay with UO-31 renal was greater than 100 µM throughout.
As for `COc1cc(/C=C/c2ccnc3ccccc23)cc(OC)c1OC`, the GI50 in the assay with COLO 205 colon is 3.26 µM; in the assay on HCC-2998 colon it was 3.53 µM; in the assay with HL-60(TB) leukemia it was 2.56 µM; with IGROV1 ovarian, 4.94 µM; in the assay with KM12 colon it was 1.34 µM; in the assay on MDA-MB-231 breast, 2.8 µM. Moreover, the results for the GI50 in the assay on NCI-H460 lung, with RPMI-8226 leukemia and with SN12C renal were 2.94 µM, 6.55 µM and 4.4 µM, respectively. The TGI in the assay on COLO 205 colon is 7.36 µM and 15.1 µM; with HCC-2998 colon, > 100 µM and 38.4 µM; in the assay with HL-60(TB) leukemia it was 1.58 µM and 7.97 µM; in the assay with IGROV1 ovarian it was 35 µM and > 100 µM; with KM12 colon, 15.9 µM and 11.1 µM; in the assay with MDA-MB-231 breast, 9.42 µM and 46 µM. Also, the TGI is 15.8 µM and 15 µM in the assay on NCI-H460 lung; 31 µM and > 100 µM in the assay with SN12C renal; greater than 100 µM in the assay with UO-31 renal.
With `C(=C\c1ccc(OCC2CO2)cc1)/C1=NCOC1` (centres undefined), the GI50 with COLO 205 colon was 6.33 µM; in the assay on HCC-2998 colon, 7.43 µM; in the assay with HL-60(TB) leukemia it was 2.35 µM; with IGROV1 ovarian, 5.74 µM; with KM12 colon, 16.5 µM; in the assay with MDA-MB-231 breast, 14.7 µM. Besides, the GI50 in the assay on NCI-H460 lung is 19.9 µM; with RPMI-8226 leukemia, 13.1 µM; in the assay with SN12C renal it was 10.6 µM; with UO-31 renal, 3.64 µM. For the same compound, the TGI is 32.4 µM in the assay with COLO 205 colon; 22.6 µM in the assay with HCC-2998 colon; 9.16 µM in the assay with HL-60(TB) leukemia; 20.4 µM in the assay on IGROV1 ovarian; 40.8 µM in the assay with KM12 colon; 30.7 µM with MDA-MB-231 breast. Also, the TGI in the assay with NCI-H460 lung came to 57.7 µM; in the assay with RPMI-8226 leukemia, 37.2 µM; in the assay with SN12C renal, 25.9 µM; in the assay with UO-31 renal, 12.8 µM.
